Laboratory results: US9457089B2, “Highly concentrated aqueous protein solution with reduced viscosity” (ADOCIA, priority 2012, dated 2016)
Counter-ions that a name gives are not always drawn.

Key:
[1] = test system: infliximab; assay: Viscosity reduction of highly concentrated infliximab solution (cone/plate rheometer); type: physicochemical; conditions: for % viscosity reduction relative to the control infliximab solution: pH 7.2±0.2
From the text: (§1) For this example, three solutions of monoclonal antibodies, i.e. a solution of bevacizumab (an IgG1 sold under the name Avastin® by Genentech/Hoffmann La Roche), a solution of infliximab (an IgG1/κ sold under the name Remicade® by Schering-Plough) and a solution of trastuzumab (an IgG1/κ sold under the name Herceptin® by Genentech), were concentrated by ultrafiltration on Amicon® Ultra-15 centrifuge filtration units with a cutoff threshold of 50 kDa. The protein concentration of each concentrated solution was measured by UV spectroscopy (absorbance at 280 nm) after dilution of the samples.
(§2) The commercial solution of bevacizumab (25 mg/ml) was concentrated to 268 mg/ml. […] Once reconstituted, the infliximab and trastuzumab formulations were concentrated to, respectively, 183 mg/ml and 243 mg/ml.
(§3) The effect of uridine compared with that of arginine and of NaCl on the viscosity of these three highly concentrated therapeutic protein solutions was then evaluated. For this, the viscosity was measured using a cone/plate rheometer (TA Instruments, AR 2000 Ex, geometry or diameter 20 mm, cone of 0.5131°, solvent trap filled with water) at a temperature of 21° C. and in flow sweep mode with shear rates of between 5000 and 50 s^−1 (3 points per decade-steady-state sensing). All the viscosity values are determined at the level of the Newtonian plateau.
The samples thus prepared were stored at ambient temperature and were analyzed using a rheometer within 24 hours of their preparation. […]
(§4) The pH of these formulations (“Protein+Urid”, “Protein+Arg” and “Protein+NaCl” and “controls”) is the same as that of the commercial formulation of the corresponding therapeutic protein (table II).
(§5) The results of the measurements relating to this second example are given in table III hereinafter in the form of percentages of viscosity reduction relative to the control solution of therapeutic protein alone, at the same protein concentration as the “Protein+Urid”, “Protein+Arg” or “Protein+NaCl” formulations.
(§6) In this study, the highly concentrated bevacizumab and infliximab solutions used are the same as those which were prepared and used previously. The “Protein+Cyt”, “Protein+Deoxycyt”, “Protein+Urid”, “Protein+Arg”, “Protein+NaCl” and “Protein+ATP” formulations were prepared in the presence of 150 mM of cytidine, of 2′-deoxycytidine, of uridine, of arginine, of NaCl or of sodium salt of adenosine 5′-triphosphate.
(§7) The viscosity of the “Protein+Cyt”, “Protein+Deoxycyt” and “Protein+Urid” formulations was then measured as described in example 2 and compared with that obtained for the “Protein+Arg”, “Protein+NaCl” and “Protein+ATP” formulations. The pH of these formulations is the same as that of the corresponding therapeutic protein formulation, i.e. 6.2±0.2 for bevacizumab and 7.2±0.2 for infliximab.
(§8) The results of the measurements relating to this example are given in tables IV and V hereinafter in the form of percentages of viscosity reduction relative to the control solution of therapeutic protein alone, at the same protein concentration as the “Protein+Cyt”, “Protein+Deoxycyt”, “Protein+Urid”, “Protein+Arg”, “Protein+NaCl” and “Protein+ATP” formulations.
The highly concentrated infliximab solution used is the same as that which was prepared previously. The “Protein+Cyt” and “Protein+Arg” formulations were prepared in the presence of 150 mM of cytidine or of arginine and with infliximab concentrations decreasing from 150 mg/ml to 80 mg/ml.
The pH of these formulations is the same as that of the commercial infliximab formulation, i.e. 7.2±0.2. The viscosity of the formulations thus prepared was measured as described in example 2.
The results of the measurements relating to this example are given in table VI hereinafter in the form of percentages of viscosity reduction relative to the control Infliximab solution.
The highly concentrated infliximab solution used is the same as that which was prepared and used previously. […]

[2] = test system: bevacizumab; assay: Viscosity reduction of highly concentrated bevacizumab solution (cone/plate rheometer); type: physicochemical; conditions: bevacizumab 220 mg/ml, 150 mM agent
From the text: as §1, §2, §3
(§9) For this example, the “Protein+Urid”, “Protein+Arg” and “Protein+NaCl” formulations were prepared by mixing one of the previously prepared undine, arginine or NaCl solutions, with Milli-Q® water and with one of the previously prepared concentrated protein solutions so as to achieve a final uridine, arginine or NaCl concentration of 150 mmol/l (mM) and a final protein concentration of 220 mg/ml for bevacizumab, 150 mg/ml for infliximab and 200 mg/ml for trastuzumab. The samples thus prepared were stored at ambient temperature and were analyzed using a rheometer within 24 hours of their preparation.
(§10) The “control” solutions are prepared by dilution in Milli-Q® water, so as to achieve a final protein concentration of 220 mg/ml for bevacizumab, 150 mg/ml for infliximab and 200 mg/ml for trastuzumab.
as §4, §5, §6, §7, §8

[3] = test system: trastuzumab; assay: Viscosity reduction of highly concentrated trastuzumab solution (cone/plate rheometer); type: physicochemical; conditions: trastuzumab 200 mg/ml, 150 mM agent, pH 6.0±0.2, 21° C. (Table III)
From the text: as §1, §2, §3, §9, §10, §4, §5

[4] = cited from earlier work
[5] = infliximab 150 mg/ml, 150 mM agent
[6] = infliximab 150 mg/ml, 150 mM agent, pH 7.2±0.2 (Table V)
[7] = Infliximab 105 mg/ml, 50 mM agent, pH 7.2
[8] = Infliximab 105 mg/ml, 150 mM agent, pH 7.2 (Table VII)
[9] = Infliximab 105 mg/ml, 300 mM agent, pH 7.2
[10] = infliximab 150 mg/ml, 150 mM agent, pH 7.2±0.2, 21° C. (Table III)
[11] = infliximab 80 mg/ml, 150 mM agent
[12] = infliximab 105 mg/ml, 150 mM agent
[13] = infliximab 125 mg/ml, 150 mM agent
[14] = infliximab 140 mg/ml, 150 mM agent

SMILES | % viscosity reduction relative to the “protein alone” control [1, 6] | % viscosity reduction relative to the “protein alone” control ([2]; pH 6.2±0.2 (Table IV)) | % viscosity reduction relative to the “protein alone” control [1, 7] | % viscosity reduction relative to the “protein alone” control [1, 8] | % viscosity reduction relative to the “protein alone” control [1, 9] | % viscosity reduction relative to the “protein alone” control [1, 10] | % viscosity reduction relative to the “protein alone” control ([2]; pH 6.2±0.2, 21° C. (Table III)) | % viscosity reduction relative to the “protein alone” control [3] | other results
Nc1ncnc2c1ncn2[C@@H]1O[C@H](COP(=O)(O)OP(=O)(O)OP(=O)(O)O)C(O)C1O (stereo partly drawn) [ATP, Sodium salt of adenosine 5′-triphosphate] | 0% | −14% |  |  |  |  |  |  | effect on the viscosity of infliximab (in words) [1, 5]: does not make it possible to reduce the viscosity; effect on the viscosity of bevacizumab (in words) [2]: does not make it possible to reduce the viscosity; increase of the viscosity of bevacizumab [2]: 14%; effect on the viscosity of bevacizumab (in words) ([2]; listed as sodium salt of adenosine 5′-triphosphate): does not make it possible, a fortiori, to reduce the viscosity
[Cl-].[Na+] [NaCl, Sodium chloride] | 6% | 24% | 20% | −6% | −90% | 6% | 24% | 34% | 
Nc1ccn([C@@H]2O[C@H](CO)[C@@H](O)[C@H]2O)c(=O)n1 [Cyt, Cytidine] | 76% | 43% | 39% | 68% | 72% |  |  |  | % viscosity reduction relative to the control infliximab solution [1, 11]: 58%; % viscosity reduction relative to the control infliximab solution [1, 12]: 68%; % viscosity reduction relative to the control infliximab solution [1, 13]: 69%; % viscosity reduction relative to the control infliximab solution [1, 14]: 77%; % viscosity reduction relative to the control infliximab solution [1, 5]: 76%
Nc1nc2c(ncn2[C@@H]2O[C@H](CO)[C@@H](O)[C@H]2O)c(=O)[nH]1 [guanosine] |  |  |  |  |  |  |  |  | solubility (in words) [4]: very poor solubility
Nc1ccn([C@H]2C[C@H](O)[C@@H](CO)O2)c(=O)n1 [Deoxycyt, 2′-Deoxycytidine] | 75% | 51% |  |  |  |  |  |  | 
O=c1ccn([C@@H]2O[C@H](CO)[C@@H](O)[C@H]2O)c(=O)[nH]1 [Urid, Uridine] | 70% | 64% |  |  |  | 70% | 64% | 35% | % viscosity reduction relative to the “protein alone” control ([1]; infliximab 150 mg/ml, 150 mM agent, pH 7.2±0.2, 21° C. (Table III), listed as uridine): 70%; % viscosity reduction relative to the “protein alone” control ([2]; pH 6.2±0.2, 21° C. (Table III), listed as uridine): 64%; % viscosity reduction relative to the “protein alone” control ([3]; listed as uridine): 35%
Cl.N=C(N)NCCC[C@H](N)C(=O)O [Arg, L-arginine hydrochloride salt] | 55% | 46% | 32% | 46% | 58% | 55% | 46% | 48% | % viscosity reduction relative to the control infliximab solution [1, 11]: 36%; % viscosity reduction relative to the control infliximab solution [1, 12]: 47%; % viscosity reduction relative to the control infliximab solution [1, 13]: 46%; % viscosity reduction relative to the control infliximab solution [1, 14]: 59%; % viscosity reduction relative to the control infliximab solution [1, 5]: 55%
